Assay [1] addresses T1, SAP (Homo sapiens, UniProt P02743). The experiment in a line: Isothermal calorimetry: dissociation constants between SAP and compounds. The assay is classed as binding. Particulars: for Kd: replicate measurements, read-out: Kd in micromoles per liter (replicate measurements). The text has this:
Surface plasmon resonance (SPR) is a low throughput but powerfully informative method to identify compounds that are bound by, or themselves bind to SAP, either in a calcium dependent fashion or independently of calcium, for the purposes of the present invention. For example, low molecular weight compounds that inhibit binding of SAP to its macromolecular ligands, including target ligands relevant to the present invention, can be detected by their effect on the signal generated by fluid phase SAP binding to ligand immobilised on the solid phase (Example A). Furthermore, when SAP itself is immobilised on the solid phase in an SPR instrument, the interaction with it of test molecules provided in the fluid phase generates a signal that can be detected and quantified. Purified SAP immobilized within an SPR instrument gives a quantifiable signal when it is exposed to another molecule that forms a complex with the SAP, and this is distinct from the absence of such a signal if no complex is formed. […] Another low throughput but powerful direct method is isothermal calorimetry that measures the heat of interaction in solution between SAP and test compounds according to the present invention. The binding affinity can be measured precisely as a guide to potential efficacy. Typical results by this method for the dissociation constants, Kd, between SAP and various compounds are as follows: […]

In assay [2] the target is T1, SAP. The experiment in a line: Inhibition of binding of 125I radiolabelled SAP to Neisseria meningitidis immobilized in microtitre plates. Also noted: 5 μl of radiolabelled SAP in TN; from tissue. Particulars: for inhibition at 0.2 µM: compound 200 nM; for inhibition at 0.2 µM / inhibition at 2 µM / inhibition at 20 µM / inhibition at 200 µM / inhibition at 2000 µM: read-out: Percent inhibition of binding of radiolabelled SAP to immobilized Neisseria meningitidis; for inhibition at 2 µM: compound 2 μM; for inhibition at 20 µM: compound 20 μM; for inhibition at 200 µM: compound 200 μM; for inhibition at 2000 µM: compound 2 mM; for Inhibition of binding of SAP to meningococci, in words: summary of Table 1. Here is the method:
A suspension of heat killed Neisseria meningitidis at 1×10^8 organisms per ml in PBS was dispensed to polystyrene microtitre plates at 50 μl volumes per well, and left overnight at 4° C. All wells were then washed three times with 200 μl volumes of PBS containing 0.05% v/v Tween 20, prior to equilibration for 2 min with 0.01M Tris buffered 0.14M NaCl/0.002M CaCl2 at pH 8.0 (TC buffer), containing 4% w/v BSA and 0.05%/v Tween 20 (TCBT buffer). The wells were then emptied before adding to each one the following reagents. […] For background, non-specific, non calcium dependent, binding in the presence of EDTA: 5 μl radiolabelled SAP in TN and 45 μl 0.01M Tris buffered 0.14M NaCl at pH 8.0 containing 11.1 mM EDTA, 4.4% w/v BSA and 0.06% w/v Tween 20 (TEBT buffer) to provide final concentrations of EDTA, 10 mM; BSA, 4%; Tween 20, 0.05%. […] All wells were then incubated at room temperature for 2 h before being washed three times with 200 μl volumes of TCBT, allowed to dry for 1 h at room temperature, and bound radiolabelled SAP was then counted.
The capacity of the compounds tested to inhibit binding of SAP to meningococci is expressed as the percentage by which SAP binding was reduced compared to binding in the absence of any inhibitor (Table 1).

Assay [3] addresses T1, SAP. Description: Inhibition of binding of 125I radiolabelled SAP to native long chromatin immobilized in microtitre plates. Details: 5 μl of radiolabelled SAP in TN; from tissue. Conditions: for Inhibition of binding of SAP to chromatin, in words: Table 2; for inhibition at 0.2 µM: compound 200 nM; for inhibition at 0.2 µM / inhibition at 2 µM / inhibition at 20 µM / inhibition at 200 µM / inhibition at 2000 µM: read-out: Percent inhibition of binding of radiolabelled SAP to immobilized native long chromatin; for inhibition at 2 µM: compound 2 μM; for inhibition at 20 µM: compound 20 μM; for inhibition at 200 µM: compound 200 μM.

The target in assay [4] is T1, SAP. Description: Inhibition of binding of 125I radiolabelled SAP to influenza virus immobilized in microtitre plates. Also noted: 5 μl of radiolabelled SAP in TN; from tissue. Particulars: for inhibition at 0.2 µM: compound 200 nM; for inhibition at 0.2 µM / inhibition at 2 µM / inhibition at 20 µM / inhibition at 200 µM / inhibition at 2000 µM: read-out: Percent inhibition of binding of radiolabelled SAP to immobilized influenza virus; for inhibition at 2 µM: compound 2 μM; for inhibition at 20 µM: compound 20 μM; for inhibition at 200 µM: compound 200 μM; for inhibition at 2000 µM: compound 2 mM; for Inhibition of binding of SAP to immobilised influenza virus, in words: summary of Table 3. Here is the method:
A concentrated suspension of purified influenza virus A/Shanghai/24/90 at 10 mg protein per ml in PBS was diluted 1:50 in PBS and then dispensed to polystyrene microtitre plates at 50 μl volumes per well, and left overnight at 4° C. All wells were then emptied before blocking by addition to each well of 200 μl of 2% w/v BSA in PBS and incubation at room temperature for 1 h. All wells were then washed three times with 200 μl volumes of PBS containing 0.05% v/v Tween 20, prior to equilibration for 2 min with 0.01M Tris buffered 0.14M NaCl/0.002M CaCl2 at pH 8.0 (TC buffer), containing 4% w/v BSA and 0.05% v/v Tween 20 (TCBT buffer). The wells were then emptied before adding to each one the following reagents. […] For background, non-specific, non calcium dependent, binding in the presence of EDTA: 5 μl radiolabelled SAP in TN and 45 μl 0.01M Tris buffered 0.14M NaCl at pH 8.0 containing 11.1 mM EDTA, 4.4% w/v BSA and 0.06% w/v Tween 20 (TEBT buffer) to provide final concentrations of EDTA, 10 mM; BSA, 4%; Tween 20, 0.05%. […] All wells were then incubated at room temperature for 2 h before being washed three times with 200 μl volumes of TCBT, allowed to dry for 1 h at room temperature, and bound radiolabelled SAP was then counted. The compounds tested in the experiment shown here were the same as those specified in Example B above.
The capacity of the compounds tested to inhibit binding of SAP to the immobilised influenza virus is expressed as the percentage by which SAP binding was reduced compared to binding in the absence of any inhibitor (Table 3).

Structures are written as SMILES. Where “and” joins values, the source holds several entries; their conditions need not be identical. Identical values can stand only once.

By Kd is commonly meant the constant that tells how readily two partners part at equilibrium. Usually inhibition stands for the percentage by which the read-out fell short of the control.

T1 sequence (P02743 20-223): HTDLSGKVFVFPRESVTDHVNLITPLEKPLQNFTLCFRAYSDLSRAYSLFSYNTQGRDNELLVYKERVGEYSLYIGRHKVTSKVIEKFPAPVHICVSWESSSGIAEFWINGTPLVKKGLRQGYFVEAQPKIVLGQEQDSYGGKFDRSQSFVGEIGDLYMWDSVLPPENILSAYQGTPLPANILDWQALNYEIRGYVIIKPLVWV

For `NCCOP(=O)(O)O` [Phosphoethanolamine, reference compound], the Kd in assay [1] is 36 µM and 27 µM and 48 µM. Also, in assay [2], the inhibition at 0.2 µM is 7%, the inhibition at 2 µM amounted to 18%, the inhibition at 20 µM stood at 32% and the inhibition at 200 µM was 41%. Also, in assay [2], the inhibition at 2000 µM came out at 95% and the “Inhibition of binding of SAP to meningococci, in words” value was “inhibition at high concentration, but only modest effects when diluted”. In assay [3], the “Inhibition of binding of SAP to chromatin, in words” value (“Inhibition … to chromatin, in words” below) is reported as “inhibition at high concentration, but only modest effects when diluted”; the inhibition at 0.2 µM worked out at 3%; the inhibition at 2 µM was 9%; the inhibition at 20 µM stood at 36%. For the same compound, in assay [3], the inhibition at 200 µM was 59%. The inhibition at 2000 µM in assay [3] (compound 2 mM) worked out at 94%. Further, in assay [4], the inhibition at 0.2 µM amounted to 1%, the inhibition at 2 µM came out at 8%, the inhibition at 20 µM stood at 42% and the inhibition at 200 µM was 51%. Further, in assay [4], the inhibition at 2000 µM stood at 69% and the “Inhibition of binding of SAP to immobilised influenza virus, in words” value was “inhibition at high concentration, but only modest effects when diluted”.
`O=C(O)[C@H]1CCCN1C(=O)COc1ccc(OCC(=O)N2CCC[C@@H]2C(=O)O)cc1` [Ro-64-2856, (R)-1-[[4-[2-[(R)-2-Carboxy-pyrrolidin-1-yl]-2-oxo-ethoxy]-phenoxy]-acetyl]-pyrrolidine-2-carboxylic acid]: the Kd in assay [1] was 0.019 µM and 0.02 µM. In assay [2], the inhibition at 0.2 µM worked out at 0%, the inhibition at 2 µM was found to be 65%, the inhibition at 20 µM was 74% and the inhibition at 200 µM amounted to 65%. Besides, the inhibition at 2000 µM in assay [2] came to 100%. In assay [3], the inhibition at 0.2 µM was 1%, the inhibition at 2 µM came out at 36%, the inhibition at 20 µM is 56% and the inhibition at 200 µM amounted to 75%. In addition, the inhibition at 2000 µM in assay [3] (compound 2 mM) worked out at 91%. In addition, in assay [4], the inhibition at 0.2 µM was 3%, the inhibition at 2 µM was 77%, the inhibition at 20 µM came out at 82% and the inhibition at 200 µM was 84%. Besides, the inhibition at 2000 µM in assay [4] came out at 87%.
On to `C[N+](C)(C)CCOP(=O)([O-])O` [Phosphocholine, reference compound], for which the “Kd in micromoles per liter (replicate measurements)” value in assay [1] is given as “No binding”. In assay [2], the inhibition at 20 µM was 4%; the inhibition at 2000 µM worked out at 24%; the “Inhibition of binding of SAP to meningococci, in words” value is “virtually no effect”. In assay [3], the “Inhibition … to chromatin, in words” value is listed as “virtually no effect”; the inhibition at 0.2 µM came to 2%; the inhibition at 2 µM turned out to be 0%; the inhibition at 20 µM amounted to 0%. For the same compound, in assay [3], the inhibition at 200 µM stood at 3% and the inhibition at 2000 µM came to 19%. Further, in assay [4], the inhibition at 20 µM was found to be 5%; the inhibition at 200 µM is 5%; the “Inhibition of binding of SAP to immobilised influenza virus, in words” value is “virtually no effect”.
In the case of `O=C(O)CN(CCN(CC(=O)O)CC(=O)O)CC(=O)O` [EDTA, reference compound], in assay [2] (EDTA 10 mM (printed in the 2 mM column)), the “Percent inhibition of binding of radiolabelled SAP to immobilized Neisseria meningitidis” value stood at 100%. For the same compound, in assay [2], the “Inhibition of binding of SAP to meningococci, in words” value was “All binding was inhibited”. In addition, the “Inhibition … to chromatin, in words” value in assay [3] is “All binding was inhibited”. The “Inhibition of binding of SAP to immobilised influenza virus, in words” value in assay [4] is listed as “All binding was inhibited”.
For `O=C(O)[C@H]1CCCN1C(=O)Cc1cc(O)c(CC(=O)N2CCC[C@@H]2C(=O)O)cc1O` [Ro-64-4383, (R)-1-[[2,5-Dihydroxy-4-[2-[(R)-2-carboxy-pyrrolidin-1-yl]-2-oxo-ethyl]-phenyl]-acetyl]-pyrrolidine-2-carboxylic acid], in assay [2], the inhibition at 0.2 µM came out at 1%, the inhibition at 2 µM amounted to 76%, the inhibition at 20 µM came to 95% and the inhibition at 200 µM was determined as 100%. Besides, the inhibition at 2000 µM in assay [2] was determined as 100%. In assay [3], the inhibition at 0.2 µM was found to be 0%, the inhibition at 2 µM amounted to 45%, the inhibition at 20 µM worked out at 78% and the inhibition at 200 µM turned out to be 88%. The inhibition at 2000 µM in assay [3] (compound 2 mM) was 97%. Moreover, in assay [4], the inhibition at 0.2 µM came out at 24%, the inhibition at 2 µM was 57%, the inhibition at 20 µM amounted to 80% and the inhibition at 200 µM worked out at 89%. In addition, the inhibition at 2000 µM in assay [4] came to 89%.
Consider `O=C(O)[C@H]1CCCN1C(=O)COc1ccccc1OCC(=O)N1CCC[C@@H]1C(=O)O` [Ro-63-8593, (R)-1-[[2-[2-[(R)-2-Carboxy-pyrrolidin-1-yl]-2-oxo-ethoxy]-phenoxyl]-acetyl]-pyrrolidine-2-carboxylic acid], for which, in assay [2], the inhibition at 0.2 µM worked out at 18%, the inhibition at 20 µM is 87%, the inhibition at 200 µM worked out at 100% and the inhibition at 2000 µM is 100%. For the same compound, in assay [3], the inhibition at 0.2 µM was determined as 7%, the inhibition at 2 µM worked out at 34%, the inhibition at 20 µM was determined as 77% and the inhibition at 200 µM stood at 89%. Besides, in assay [3] (compound 2 mM), the inhibition at 2000 µM was determined as 96%. In assay [4], the inhibition at 0.2 µM worked out at 44%, the inhibition at 2 µM worked out at 68%, the inhibition at 20 µM is 88% and the inhibition at 200 µM was 93%. Moreover, in assay [4], the inhibition at 2000 µM was found to be 94%.
Turning to `CC(=O)N1CCC[C@@H]1C(=O)O` [N-acetyl-D-proline], in assay [1], the Kd was 16 µM and 23 µM and 17 µM.

(Values after patent publication US7659299B2, “Compounds inhibiting the binding of sap for treating osteoarthritis” (Pentraxin Therapeutics Limited, priority 2003, dated 2010).)
